{"source": "paper PMC7187413", "about": "(Journal of medicinal chemistry, 2020)", "key": {"[1]": {"biological_target": "WDR5 (Homo sapiens, UniProt P61964)", "assay": "Competition fluorescence polarization-based assay"}, "[2]": {"biological_target": "WDR5-MYC complex (Homo sapiens, UniProt P61964)", "assay": "Co-IP target engagement in whole", "type": "cell-based", "details": "transformed HEK293 cells, 5 μM compound, 24 h"}, "[3]": {"biological_target": "MLL-1 in the full WDR5, RBBP5, ASH2L, and DPY30 (WRAD) complex (Homo sapiens, UniProt P61964)", "assay": "Biochemical histone methyltransferase assay", "details": "Supplemental Table 4"}, "[4]": {"system": "WDR5 binding to chromatin", "assay": "ChIP of WDR5 binding to chromatin at MYC target genes in HEK293 cells", "type": "cell-based, human", "details": "cells treated with 12 versus N.C."}, "[5]": {"system": "MYC bound to chromatin", "assay": "ChIP-qPCR of MYC binding to target genes in c-MYC-HA overexpressing HEK293 cells", "type": "cell-based, human", "details": "20 μM, 10 h"}}, "note": "“Also recorded” adds a separate entry of the source.", "data": [{"compound": "5-Bromo-3-chloro-N-(1-cyclopentyl-2-(4-(pyrrolidin-3-yl)piperidine-1-carbonyl)-1H-imidazol-4-yl)-2-hydroxybenzenesulfonamide [Compound 9]", "values": [{"measurement": "Kd", "setting": "[1]; read-out: FPA Kd, competition with FITC-labeled small molecule, average of at least 3 independent replicates ± standard deviation", "result": "5 ± 1", "unit": "µM"}]}, {"compound": "O=S(=O)(Nc1cn(C2CCCC2)cn1)c1cc(Br)cc(Cl)c1O", "note": "[Compound 2i, 5-Bromo-3-chloro-N-(1-cyclopentyl-1H-imidazol-4-yl)-2-hydroxybenzenesulfonamide]", "values": [{"measurement": "WDR5-MYC complex formation in whole cells relative to DMSO", "setting": "[2]", "result": "decreased complex formation"}, {"measurement": "fold improvement in the binding affinity compared to 2a", "setting": "[1]; FPA Kd relative to 2a", "result": 2.5, "unit": "fold"}]}, {"compound": "O=S(=O)(Nc1cnn(C2CCCC2)c1)c1cc(Br)cc(Cl)c1O", "note": "[Compound 3d, 5-Bromo-3-chloro-N-(1-cyclopentyl-1H-pyrazol-4-yl)-2-hydroxybenzenesulfonamide]", "values": [{"measurement": "inhibition of histone methyltransferase activity of MLL-1", "setting": "[3]", "result": "inhibited"}]}, {"compound": "CCOC(=O)c1nc(NS(=O)(=O)c2cc(Br)cc(Cl)c2O)cn1C1CCCC1", "note": "[Compound 6, Ethyl 4-((5-bromo-3-chloro-2-hydroxyphenyl)sulfonamido)-1-cyclopentyl-1H-imidazole-2-carboxylate]", "values": [{"measurement": "inhibition of histone methyltransferase activity of MLL-1", "setting": "[3]", "result": "inhibited"}]}, {"compound": "CNC(=O)c1nc(NS(=O)(=O)c2cc(Br)cc(Cl)c2O)cn1C1CCCC1", "note": "[Compound 8, 4-((5-Bromo-3-chloro-2-hydroxyphenyl)sulfonamido)-1-cyclopentyl-N-methyl-1H-imidazole-2-carboxamide]", "values": [{"measurement": "inhibition of histone methyltransferase activity of MLL-1", "setting": "[3]", "result": "inhibited"}]}, {"compound": "CS(=O)(=O)c1nc(NS(=O)(=O)c2cc(Br)cc(Cl)c2O)cn1C1CCCC1", "note": "[Compound 12]", "values": [{"measurement": "WDR5 binding to chromatin at MYC target loci", "setting": "[4]", "result": "comparable levels"}, {"measurement": "inhibition of histone methyltransferase activity of MLL-1", "setting": "[3]", "result": "inhibited"}, {"measurement": "amount of MYC at loci where MYC recruitment is dependent on WDR5", "setting": "[5]; C7orf40, RNPS1, RPS14, RPL5", "result": "reduction in the amount of MYC; also recorded: reduce the amount of MYC bound to chromatin"}, {"measurement": "amount of MYC at sites where MYC binding is independent of WDR5", "setting": "[5]; ZFPM1 and ZNF771", "result": "remained nearly unaffected; also recorded: did not affect binding of MYC"}]}]}
